This is an account of results in BindingDB's records for doi:10.1021/acschembio.5b01018 (Stony Brook University, 2016).

The target of the experiment is T1, Tyrosine-protein kinase ABL1 [229-512] (Homo sapiens, UniProt P00519).
T1 construct: 229-512
T1 sequence (P00519 whole entry): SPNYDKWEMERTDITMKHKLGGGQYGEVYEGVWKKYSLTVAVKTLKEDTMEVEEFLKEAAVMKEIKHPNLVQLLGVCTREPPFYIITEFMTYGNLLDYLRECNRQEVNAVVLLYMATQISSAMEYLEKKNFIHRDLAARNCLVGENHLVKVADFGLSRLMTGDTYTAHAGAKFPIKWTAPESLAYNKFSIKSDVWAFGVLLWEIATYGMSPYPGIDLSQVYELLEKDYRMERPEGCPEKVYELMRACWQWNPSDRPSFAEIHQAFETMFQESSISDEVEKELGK
Description: Kinome-Wide Inhibitor Profiling for Phosphorylated c-Abl.
Description: Inhibitor selectivity profiles were obtained through Luceome Biotechnologies (Tuscon, AZ). Each inhibitor was screened at 0.5 μM against phosphorylated c-Abl.

In turn, `Cc1nc(Nc2ncc(C(=O)Nc3cc(NC(=O)c4cccc(C(F)(F)F)c4)ccc3C)s2)cc(N2CCN(CCO)CC2)n1` [DAS-DFGO-II] displayed a Kd of 2 nM.

Turning to `Cc1nc(Nc2ncc(C(=O)Nc3cccc(NC(=O)c4cccc(C(F)(F)F)c4)c3)s2)cc(N2CCN(CCO)CC2)n1` [DAS-DFGO-I], the equilibrium dissociation constant (Kd) was 1.8 nM.

One may read the Kd as a measure of binding affinity in units of concentration. The low end stands for higher affinity, the high end for lower affinity.
